Experimental findings from PubChem BioAssay AID504669 (Sanford-Burnham Center for Chemical Genomics, 2011) are described below.

One may read the IC50 as the point on the concentration scale where inhibition reaches its midpoint.

The target in this experiment is Breast cancer type 1 susceptibility protein (Homo sapiens) + BRCA1-associated RING domain protein 1 (Homo sapiens) (UniProt P38398+Q99728). Kind of experiment: inhibition of Brca1/Bard1 split-luciferase complementation, dose response, counter-screen for Mdm2/MdmX interaction inhibitor project, cell-based, luminescence (AID 504669). As to conditions: SaOS-2 Brca1/Bard1 split-luciferase complementation. For orientation: A counterscreen serves to expose hits that act by an unwanted route or on another target.
Sequence of Breast cancer type 1 susceptibility protein (Homo sapiens) + BRCA1-associated RING domain protein 1 (Homo sapiens) (P38398 whole entry, looked up, the tested form may be a part): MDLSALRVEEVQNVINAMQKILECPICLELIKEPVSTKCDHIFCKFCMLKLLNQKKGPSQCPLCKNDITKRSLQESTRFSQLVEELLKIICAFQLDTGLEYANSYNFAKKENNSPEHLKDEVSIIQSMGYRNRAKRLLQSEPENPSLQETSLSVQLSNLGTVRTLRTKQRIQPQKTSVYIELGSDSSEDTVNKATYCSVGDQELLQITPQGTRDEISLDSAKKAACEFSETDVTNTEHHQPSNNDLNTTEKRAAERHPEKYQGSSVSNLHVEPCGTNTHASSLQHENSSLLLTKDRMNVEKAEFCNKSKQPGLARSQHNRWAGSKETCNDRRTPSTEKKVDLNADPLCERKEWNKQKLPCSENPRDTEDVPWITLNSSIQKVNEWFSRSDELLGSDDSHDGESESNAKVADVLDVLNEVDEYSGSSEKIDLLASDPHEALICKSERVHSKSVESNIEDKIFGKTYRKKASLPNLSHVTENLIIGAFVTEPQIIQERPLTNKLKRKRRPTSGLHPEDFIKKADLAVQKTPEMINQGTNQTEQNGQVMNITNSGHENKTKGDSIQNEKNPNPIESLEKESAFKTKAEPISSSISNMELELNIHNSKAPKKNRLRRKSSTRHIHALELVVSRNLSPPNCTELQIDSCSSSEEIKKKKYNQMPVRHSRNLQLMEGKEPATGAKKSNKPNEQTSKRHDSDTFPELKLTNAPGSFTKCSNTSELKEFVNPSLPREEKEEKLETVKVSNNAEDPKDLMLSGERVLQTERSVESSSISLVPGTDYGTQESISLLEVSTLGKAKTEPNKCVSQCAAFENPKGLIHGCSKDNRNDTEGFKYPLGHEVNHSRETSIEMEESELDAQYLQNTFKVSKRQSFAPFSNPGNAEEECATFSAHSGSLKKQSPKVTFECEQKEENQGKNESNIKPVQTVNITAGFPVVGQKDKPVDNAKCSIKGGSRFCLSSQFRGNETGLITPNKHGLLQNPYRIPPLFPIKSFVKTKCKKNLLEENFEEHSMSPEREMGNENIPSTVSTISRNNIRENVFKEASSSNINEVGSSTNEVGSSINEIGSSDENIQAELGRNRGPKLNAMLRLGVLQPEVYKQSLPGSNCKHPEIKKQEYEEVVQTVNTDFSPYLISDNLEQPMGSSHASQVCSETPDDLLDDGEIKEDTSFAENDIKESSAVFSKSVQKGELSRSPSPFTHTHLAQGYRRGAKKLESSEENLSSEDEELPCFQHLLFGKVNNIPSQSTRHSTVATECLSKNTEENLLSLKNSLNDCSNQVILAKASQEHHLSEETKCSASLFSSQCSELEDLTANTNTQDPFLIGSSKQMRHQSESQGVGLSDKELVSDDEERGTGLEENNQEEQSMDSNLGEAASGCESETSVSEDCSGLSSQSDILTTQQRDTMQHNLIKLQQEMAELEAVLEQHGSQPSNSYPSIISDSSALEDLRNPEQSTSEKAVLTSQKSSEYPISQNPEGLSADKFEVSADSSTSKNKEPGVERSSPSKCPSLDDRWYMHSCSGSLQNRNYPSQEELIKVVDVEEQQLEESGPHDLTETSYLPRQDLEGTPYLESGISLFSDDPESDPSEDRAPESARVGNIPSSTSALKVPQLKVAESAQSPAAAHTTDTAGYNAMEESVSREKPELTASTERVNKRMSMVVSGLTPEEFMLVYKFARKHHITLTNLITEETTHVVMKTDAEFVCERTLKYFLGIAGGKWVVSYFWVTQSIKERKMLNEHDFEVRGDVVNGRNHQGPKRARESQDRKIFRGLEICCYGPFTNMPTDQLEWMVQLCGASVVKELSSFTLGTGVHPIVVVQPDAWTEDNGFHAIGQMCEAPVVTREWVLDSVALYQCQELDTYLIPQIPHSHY
Sequence of Breast cancer type 1 susceptibility protein (Homo sapiens) + BRCA1-associated RING domain protein 1 (Homo sapiens) (Q99728 whole entry, looked up, the tested form may be a part): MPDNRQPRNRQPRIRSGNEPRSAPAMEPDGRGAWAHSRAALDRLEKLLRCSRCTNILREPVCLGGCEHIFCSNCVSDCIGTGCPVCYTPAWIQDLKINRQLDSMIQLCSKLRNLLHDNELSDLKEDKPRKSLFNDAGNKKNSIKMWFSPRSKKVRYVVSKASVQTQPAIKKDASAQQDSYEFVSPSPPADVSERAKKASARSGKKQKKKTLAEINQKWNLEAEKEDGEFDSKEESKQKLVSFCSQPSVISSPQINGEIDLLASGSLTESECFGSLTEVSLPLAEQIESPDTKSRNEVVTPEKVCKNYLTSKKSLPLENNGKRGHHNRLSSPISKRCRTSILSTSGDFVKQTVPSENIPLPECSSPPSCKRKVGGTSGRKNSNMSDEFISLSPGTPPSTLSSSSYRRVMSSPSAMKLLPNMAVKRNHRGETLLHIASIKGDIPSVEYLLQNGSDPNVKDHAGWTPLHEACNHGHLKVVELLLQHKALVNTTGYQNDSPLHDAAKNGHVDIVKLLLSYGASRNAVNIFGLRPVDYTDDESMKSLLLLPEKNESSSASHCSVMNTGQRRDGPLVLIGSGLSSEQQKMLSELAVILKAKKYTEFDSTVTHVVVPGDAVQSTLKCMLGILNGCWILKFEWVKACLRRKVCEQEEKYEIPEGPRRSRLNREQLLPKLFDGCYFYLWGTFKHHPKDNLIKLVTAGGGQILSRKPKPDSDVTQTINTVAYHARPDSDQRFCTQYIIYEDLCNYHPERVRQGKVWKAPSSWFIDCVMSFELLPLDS
On to `COCCn1c(C)cc(C2=NNC(=Nc3ccccc3F)SC2)c1C`, for which the IC50 is 0.493 µM.

Turning to `CC(=O)c1ccc(-c2ccc(C(=O)Nc3nc(-c4ccccn4)cs3)o2)cc1`, the 50% inhibitory concentration (IC50) was 4.85 µM.

Take `CC1(C)C(=O)Nc2ccccc2N1C(=O)Cn1ncc(Cl)c(Cl)c1=O`: the half-maximal inhibitory concentration (IC50) is 8.39 µM.

`COc1cc(-c2nc(-c3ccc(NC(=O)c4ccc5c(c4)OCO5)cc3)no2)cc(OC)c1OC`: the IC50 is 13.4 µM.

Regarding `CCN(CC)S(=O)(=O)c1ccc(NC(=O)c2cccnc2Cl)c(NC(=O)c2cccnc2Cl)c1`, the IC50 was 10.1 µM.

`O=c1oc2ccccc2cc1-c1cn(-c2ccccc2)c(=S)[nH]1`: the IC50 is 0.00353 µM.

In the case of `O=C(/C=C/c1c(F)cccc1Cl)c1ccc(O)cc1`, the half-inhibitory concentration (IC50) was 6.64 µM.

With `CCOc1cc(N2CCOCC2)c(OCC)cc1NC(=O)COc1cccc2cccnc12`, the IC50 is 5.07 µM.

As for `CC(C)c1cccc(O)c(=O)c1`, the IC50 is 3.89 µM.

As to `C/C(=N\Nc1cc(C)nc(-c2ccccc2O)n1)c1ccccc1O`, the concentration for half-maximal inhibition (IC50) is 5.35 µM.

`COc1ccc(-c2cc3c(=O)n(CC(=O)NCCCN4CCC(N5CCCCC5)CC4)nc(C)n3n2)cc1`: the IC50 was 10.6 µM.

`O=[N+]([O-])c1ccccc1S(=O)(=O)Nc1cccc2cccnc12`: the half-inhibitory concentration (IC50) is 4.37 µM.

As to `COc1ccc2c(c1)C1(Nc3ccccc3-c3nc4ccccc4n31)C(=O)N2C` (stereo not given), the half-maximal inhibitory concentration (IC50) was 1.18 µM.

For the molecule `Cc1nc(NC2=NCN(CCCN3CCOCC3)CN2)nc2c(C)cccc12`, the IC50 is 5.59 µM.

Turning to `O=C(CN1CCCc2ccccc21)N/N=C/c1c(O)ccc2ccccc12`, the IC50 is 1.97 µM.

`Cn1nc([N+](=O)[O-])nc1Sc1nnc(-c2ccccc2)o1`: the half-inhibitory concentration (IC50) was 12.3 µM.

For `Cc1cccn2c(=O)c3cc(C(=O)NCCc4ccccc4)c(=N)n(Cc4ccco4)c3nc12`, the half-inhibitory concentration (IC50) is 4.13 µM.

Take `CCN1C/C(=C/c2ccc(OC)c(O)c2)C(=O)/C(=C/c2ccc(OC)c(O)c2)C1`: the IC50 is 9.78 µM.

Consider `CCOC(=O)/C=C/C(=O)OCC(=O)NC(c1ccccc1)c1ccccc1`, for which the IC50 is 3.9 µM.

For the molecule `CCOC(=O)c1ccc(Nc2nc(N)c3cc(OC)c(OC)cc3n2)cc1`, the 50% inhibitory concentration (IC50) was 14.3 µM.
